{"source": "patent US20250387449A1", "about": "“PHARMACEUTICAL COMBINATION COMPRISING AN IBAT INHIBITOR AND A BILE ACID BINDER” (Albireo AB, priority 2010, published 2025)", "key": {"[1]": {"experiment": "Phase IIb placebo-controlled dose-finding study in patients with Chronic Idiopathic Constipation: adverse events", "type": "in vivo, human", "conditions": "Example 14 plus colonic delivery of 400 mg colesevelam 3 times a day"}, "[2]": {"experiment": "Phase IIb placebo-controlled dose-finding study in patients with Chronic Idiopathic Constipation: adverse events", "type": "in vivo, human", "conditions": "56 days treatment", "method": "A Phase IIb, Double-blind, Randomized, Placebo-controlled, Multi-centre, Dose-finding, Efficacy and Safety Study of a Range of Doses of the compound of Example 14 in about 200 patients with Chronic Idiopathic Constipation, where patients were treated for 56 days, was performed. The patients were males or non-pregnant females ≥20 years of age and ≤80 years of age, having a body mass index (BMI) ≥18.5 but <35.\nAll patients with adverse events of diarrhea and abdominal pain type related to treatment with the compound of Example 14 are presented in table 2."}}}
{"smiles": "CCCCC1(CCCC)CN(c2ccccc2)c2cc(SC)c(OCC(=O)N[C@@H](C(=O)NCC(=O)O)c3ccccc3)cc2S(=O)(=O)C1", "note": "[Example 14, 1,1-Dioxo-3,3-dibutyl-5-phenyl-7-methylthio-8-(N—{(R)-1′-phenyl-1′-[N′-(carboxymethyl)-carbamoyl]methyl}carbamoylmethoxy)-2,3,4,5-tetrahydro-1,5-benzothiazepine]", "values": [{"measurement": "bile acid dependent side effects generated from colon (diarrhoea, abdominal pain)", "setting": "[1]", "value": "effectively block bile acid side effects generated from the colon"}, {"measurement": "Abdominal Pain, % of Population", "setting": "[2]; 5 mg", "value": "10.4 % of Population"}, {"measurement": "Abdominal Pain, Number of Patients", "setting": "[2]; 5 mg", "value": 5}, {"measurement": "Diarrhoea, % of Population", "setting": "[2]; 5 mg", "value": "8.3 % of Population"}, {"measurement": "Diarrhoea, Number of Patients", "setting": "[2]; 5 mg", "value": 4}, {"measurement": "Abdominal Pain, % of Population", "setting": "[2]; 10 mg", "value": "10.6 % of Population"}, {"measurement": "Abdominal Pain, Number of Patients", "setting": "[2]; 10 mg", "value": 5}, {"measurement": "Diarrhoea, % of Population", "setting": "[2]; 10 mg", "value": "10.6 % of Population"}, {"measurement": "Diarrhoea, Number of Patients", "setting": "[2]; 10 mg", "value": 5}, {"measurement": "Abdominal Pain, % of Population", "setting": "[2]; 15 mg", "value": "27.1 % of Population"}, {"measurement": "Abdominal Pain, Number of Patients", "setting": "[2]; 15 mg", "value": 13}, {"measurement": "Diarrhoea, % of Population", "setting": "[2]; 15 mg", "value": "16.7 % of Population"}, {"measurement": "Diarrhoea, Number of Patients", "setting": "[2]; 15 mg", "value": 8}]}
